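A five-concentration, 48-hour dose response in 96-well plates underlies each endpoint, interpolated linearly between surrounding concentrations. GI50 is the concentration that inhibits growth by half.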 Activity calls are given as the source filed them. Cut-off read from the data, not from the text of the source: active = GI50 up to about 1.1 µM and inactive = higher.
What was measured:
Test in all cases: DTP human tumour cell line panel, 48 h
786-0 = test system: 786-0
A498 = test system: A498
A549 = test system: A549
ACHN = test system: ACHN
BT-549 = test system: BT-549
CCRF-CEM = test system: CCRF-CEM
COLO 205 = test system: COLO 205
DU-145 = test system: DU-145
HCC 2998 = test system: HCC 2998
HCT-116 = test system: HCT-116
HCT-15 = test system: HCT-15
HL-60 = test system: HL-60
HOP-62 = test system: HOP-62
HOP-92 = test system: HOP-92
HT-29 = test system: HT-29
Hs-578T = test system: Hs-578T
IGROV-1 = test system: IGROV-1
K562 = test system: K562
KM12 = test system: KM12
LOX IMVI = test system: LOX IMVI
M14 = test system: M14
MCF7 = test system: MCF7
MDA-MB-231 = test system: MDA-MB-231
MDA-MB-435 = test system: MDA-MB-435
MDA-N = test system: MDA-N
MOLT-4 = test system: MOLT-4
Malme-3M = test system: Malme-3M
NCI-H226 = test system: NCI-H226
NCI-H23 = test system: NCI-H23
NCI-H460 = test system: NCI-H460
NCI/ADR-RES = test system: NCI/ADR-RES
OVCAR-3 = test system: OVCAR-3
OVCAR-4 = test system: OVCAR-4
OVCAR-5 = test system: OVCAR-5
PC-3 = test system: PC-3
RPMI-8226 = test system: RPMI-8226
RXF 393 = test system: RXF 393
SF-268 = test system: SF-268
SF-539 = test system: SF-539
SK-MEL-28 = test system: SK-MEL-28
SK-MEL-2 = test system: SK-MEL-2
SK-MEL-5 = test system: SK-MEL-5
SK-OV-3 = test system: SK-OV-3
SN12C = test system: SN12C
SNB-19 = test system: SNB-19
SR = test system: SR
SW-620 = test system: SW-620
T47D = test system: T47D
TK-10 = test system: TK-10
U-251 = test system: U-251
UACC-257 = test system: UACC-257
UACC-62 = test system: UACC-62
UO-31 = test system: UO-31
CAKI-1 = test system: CAKI-1
EKVX = test system: EKVX
OVCAR-8 = test system: OVCAR-8
SF-295 = test system: SF-295
SNB-75 = test system: SNB-75
NCI-H522 = test system: NCI-H522

Measured: GI50

CC1CC[C@@]2(OC1)OC1C[C@H]3[C@@H]4CCC5CC(O)CC[C@]5(C)[C@H]4C/C(=N\N(C)C)[C@]3(C)C1[C@@H]2C (stereo not given in full)
23.4 µM: HCT-15
inactive: 786-0 20.3 µM | A498 23 µM | A549 35.3 µM | ACHN 30.3 µM | BT-549 29.4 µM | CCRF-CEM 37.8 µM | COLO 205 19.9 µM | DU-145 21.8 µM | HCC 2998 19.1 µM | HCT-116 23.3 µM | HL-60 22.2 µM | HOP-62 16.7 µM | HOP-92 52.8 µM | HT-29 19.6 µM | Hs-578T 28.6 µM | IGROV-1 28.7 µM | K562 28.2 µM | KM12 25.5 µM | LOX IMVI 26.7 µM | M14 32.3 µM | MCF7 34.9 µM | MDA-MB-231 19.2 µM | MDA-MB-435 19.5 µM | MDA-N 19.9 µM | MOLT-4 24.7 µM | Malme-3M 33.1 µM | NCI-H226 34.2 µM | NCI-H23 20.3 µM | NCI-H460 30.5 µM | NCI/ADR-RES 19.5 µM | OVCAR-3 17.9 µM | OVCAR-4 38.3 µM | OVCAR-5 27.1 µM | PC-3 25.6 µM | RPMI-8226 26.9 µM | RXF 393 16.3 µM | SF-268 31.1 µM | SF-539 23.8 µM | SK-MEL-28 43.7 µM | SK-MEL-2 20.5 µM | SK-MEL-5 21.7 µM | SK-OV-3 18.7 µM | SN12C 24.8 µM | SNB-19 30.1 µM | SR 13.8 µM | SW-620 40.3 µM | T47D 31.8 µM | TK-10 29.2 µM | U-251 31 µM | UACC-257 38.8 µM | UACC-62 27.6 µM | UO-31 33.5 µM

c1ccc2oc(-c3ccc(-c4nc5ccccc5o4)c4c3CC4)nc2c1
inactive: 786-0 > 100 µM | A498 > 100 µM | A549 > 100 µM | ACHN > 100 µM | BT-549 > 100 µM | CAKI-1 > 100 µM | CCRF-CEM > 100 µM | COLO 205 > 100 µM | DU-145 > 100 µM | EKVX > 100 µM | HCC 2998 > 100 µM | HCT-116 > 100 µM | HL-60 > 100 µM | HOP-62 > 100 µM | HOP-92 > 100 µM | HT-29 > 100 µM | Hs-578T > 100 µM | IGROV-1 > 100 µM | K562 > 100 µM | KM12 > 100 µM | LOX IMVI > 100 µM | M14 > 100 µM | MCF7 > 100 µM | MDA-MB-231 > 100 µM | MDA-MB-435 > 100 µM | MDA-N > 100 µM | MOLT-4 > 100 µM | Malme-3M > 100 µM | NCI-H226 > 100 µM | NCI-H23 > 100 µM | NCI-H460 > 100 µM | NCI/ADR-RES > 100 µM | OVCAR-3 > 100 µM | OVCAR-4 > 100 µM | OVCAR-5 > 100 µM | OVCAR-8 > 100 µM | PC-3 > 100 µM | RPMI-8226 > 100 µM | RXF 393 > 100 µM | SF-268 > 100 µM | SF-295 > 100 µM | SF-539 > 100 µM | SK-MEL-28 > 100 µM | SK-MEL-2 > 100 µM | SK-MEL-5 > 100 µM | SK-OV-3 > 100 µM | SN12C > 100 µM | SNB-19 > 100 µM | SNB-75 > 100 µM | SR > 100 µM | SW-620 > 100 µM | T47D > 100 µM | TK-10 > 100 µM | U-251 > 100 µM | UACC-257 > 100 µM | UACC-62 > 100 µM | UO-31 > 100 µM
> 100 µM: HCT-15

Cc1ccsc1C(=O)C(CC(=O)c1cccs1)c1ccsc1 (stereo not given)
> 100 µM: HCT-15
inactive: 786-0 > 100 µM | A498 > 100 µM | A549 > 100 µM | ACHN > 100 µM | BT-549 66.5 µM | CAKI-1 > 100 µM | CCRF-CEM > 100 µM | COLO 205 > 100 µM | DU-145 > 100 µM | EKVX 79.6 µM | HCC 2998 > 100 µM | HCT-116 16.1 µM | HOP-62 > 100 µM | HOP-92 > 100 µM | HT-29 93.1 µM | Hs-578T > 100 µM | IGROV-1 > 100 µM | K562 > 100 µM | KM12 > 100 µM | M14 > 100 µM | MCF7 76.2 µM | MDA-MB-231 77.6 µM | MDA-MB-435 > 100 µM | MDA-N 64.6 µM | MOLT-4 77.3 µM | Malme-3M > 100 µM | NCI-H226 > 100 µM | NCI-H23 > 100 µM | NCI-H460 33.5 µM | NCI-H522 > 100 µM | NCI/ADR-RES 37.7 µM | OVCAR-3 > 100 µM | OVCAR-4 > 100 µM | OVCAR-5 > 100 µM | OVCAR-8 > 100 µM | PC-3 45.8 µM | RXF 393 > 100 µM | SF-268 > 100 µM | SF-295 > 100 µM | SF-539 > 100 µM | SK-MEL-28 > 100 µM | SK-MEL-5 28.2 µM | SK-OV-3 > 100 µM | SN12C > 100 µM | SNB-19 > 100 µM | SNB-75 > 100 µM | SR 62.8 µM | SW-620 > 100 µM | T47D 14.5 µM | TK-10 > 100 µM | U-251 > 100 µM | UACC-257 > 100 µM | UACC-62 > 10 µM | UO-31 54.1 µM

CC(C)(C)OC(=O)/C=C/[C@@H](CCC(=O)/C=C/[C@H](/C=C\CCCC(=O)O)NC1(c2ccccc2)c2ccccc2-c2ccccc21)O[Si](C)(C)C(C)(C)C
12.3 µM: HCT-15
inactive: 786-0 16.1 µM | A498 19.2 µM | A549 14.3 µM | ACHN 17.8 µM | BT-549 16.5 µM | CAKI-1 17.9 µM | CCRF-CEM 29.2 µM | COLO 205 21.5 µM | DU-145 16.6 µM | EKVX 19.2 µM | HCC 2998 16.8 µM | HCT-116 13.6 µM | HL-60 24.8 µM | HOP-62 17.5 µM | HOP-92 4.8 µM | HT-29 14.7 µM | Hs-578T 38.9 µM | IGROV-1 16.5 µM | K562 16 µM | KM12 18.1 µM | LOX IMVI 13.8 µM | M14 14 µM | MCF7 15.9 µM | MDA-MB-231 14.1 µM | MDA-MB-435 17.8 µM | MDA-N 17.1 µM | MOLT-4 9.16 µM | NCI-H226 18.3 µM | NCI-H23 16.3 µM | NCI-H460 17.6 µM | NCI-H522 18.5 µM | NCI/ADR-RES 10.8 µM | OVCAR-3 16.7 µM | OVCAR-4 17.1 µM | OVCAR-5 20.5 µM | OVCAR-8 18.1 µM | PC-3 13.5 µM | RPMI-8226 10.5 µM | RXF 393 11.5 µM | SF-268 17.1 µM | SF-295 15.5 µM | SF-539 18.2 µM | SK-MEL-28 25.8 µM | SK-MEL-2 15.4 µM | SK-MEL-5 16.9 µM | SK-OV-3 46.6 µM | SN12C 15.8 µM | SNB-19 20.6 µM | SR 19.4 µM | SW-620 26.9 µM | T47D 12.6 µM | TK-10 24.8 µM | U-251 16.3 µM | UACC-257 17.8 µM | UACC-62 13.9 µM | UO-31 15.2 µM

Cc1ccc(C(=O)/C=C2\Nc3ccccc3SC2=O)c(C)c1
inactive: 786-0 26.2 µM | A498 > 100 µM | A549 53.3 µM | ACHN 28.6 µM | BT-549 6.9 µM | CAKI-1 37.2 µM | CCRF-CEM 36.3 µM | COLO 205 53.1 µM | DU-145 75.7 µM | EKVX 54.3 µM | HCC 2998 59.3 µM | HCT-116 38 µM | HL-60 26.9 µM | HOP-62 32.9 µM | HOP-92 23.4 µM | HT-29 45.6 µM | Hs-578T 32.6 µM | IGROV-1 29.8 µM | K562 41.3 µM | KM12 46.8 µM | LOX IMVI 37.4 µM | M14 62.1 µM | MCF7 31 µM | MDA-MB-231 > 100 µM | MDA-MB-435 56.2 µM | MDA-N 62.2 µM | MOLT-4 37.7 µM | Malme-3M 84.3 µM | NCI-H226 30.7 µM | NCI-H23 36.9 µM | NCI-H460 28.6 µM | NCI-H522 26.9 µM | NCI/ADR-RES 42.3 µM | OVCAR-3 34.1 µM | OVCAR-4 26.5 µM | OVCAR-5 > 100 µM | OVCAR-8 35.6 µM | PC-3 47.9 µM | RPMI-8226 28.5 µM | SF-268 25.1 µM | SF-295 46.5 µM | SF-539 43 µM | SK-MEL-28 51.1 µM | SK-MEL-2 42.1 µM | SK-MEL-5 38.5 µM | SK-OV-3 43.9 µM | SN12C 40.1 µM | SNB-19 45.3 µM | SR 28.3 µM | T47D 61.9 µM | TK-10 > 100 µM | U-251 44.9 µM | UACC-257 42 µM | UACC-62 32.7 µM | UO-31 32.5 µM
active: RXF 393 < 0.01 µM
20.8 µM: HCT-15
